# In ChEMBL document CHEMBL1201862, “PubChem BioAssay data set” (2004):
#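 A five-concentration, 48-hour dose response in 96-well plates underlies each endpoint, interpolated linearly between surrounding concentrations. GI50 is the concentration that inhibits growth by half.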 Active and inactive are the calls of the source. Cut-off read from the data, not from the text of the source: active = GI50 up to about 1.1 µM and inactive = higher.
# Key:
# Assay in all cases: growth of human tumour cells (NCI), 48 h
# TK-10 = test system: TK-10
# A549 = test system: A549
# PC-3 = test system: PC-3
# 786-0 = test system: 786-0
# HOP-62 = test system: HOP-62
# DU-145 = test system: DU-145
# HCT-15 = test system: HCT-15
# UACC-62 = test system: UACC-62
# HCT-116 = test system: HCT-116
# Malme-3M = test system: Malme-3M
# NCI-H23 = test system: NCI-H23
# NCI-H460 = test system: NCI-H460
# CCRF-CEM = test system: CCRF-CEM
# BT-549 = test system: BT-549
# UO-31 = test system: UO-31
# MDA-N = test system: MDA-N
# K562 = test system: K562
# EKVX = test system: EKVX
# M14 = test system: M14
# SW-620 = test system: SW-620
# MDA-MB-231 = test system: MDA-MB-231
# U-251 = test system: U-251
# OVCAR-5 = test system: OVCAR-5
# SK-MEL-5 = test system: SK-MEL-5
# NCI/ADR-RES = test system: NCI/ADR-RES
# SK-OV-3 = test system: SK-OV-3
# MCF7 = test system: MCF7
# HCC 2998 = test system: HCC 2998
# CAKI-1 = test system: CAKI-1
# SNB-75 = test system: SNB-75
# IGROV-1 = test system: IGROV-1
# OVCAR-8 = test system: OVCAR-8
# SF-268 = test system: SF-268
# SK-MEL-28 = test system: SK-MEL-28
# OVCAR-4 = test system: OVCAR-4
# NCI-H226 = test system: NCI-H226
# COLO 205 = test system: COLO 205
# NCI-H522 = test system: NCI-H522
# OVCAR-3 = test system: OVCAR-3
# Hs-578T = test system: Hs-578T
# KM12 = test system: KM12
# SR = test system: SR
# HT-29 = test system: HT-29
# UACC-257 = test system: UACC-257
# A498 = test system: A498
# SNB-19 = test system: SNB-19
# SF-295 = test system: SF-295
# MOLT-4 = test system: MOLT-4
# RXF 393 = test system: RXF 393
# ACHN = test system: ACHN
# SN12C = test system: SN12C
# HOP-92 = test system: HOP-92
# RPMI-8226 = test system: RPMI-8226
# MDA-MB-435 = test system: MDA-MB-435
# SF-539 = test system: SF-539
# SK-MEL-2 = test system: SK-MEL-2
# LOX IMVI = test system: LOX IMVI
# HL-60 = test system: HL-60
smiles,measurement,setting,value
CC(C)c1ccc2nc3ccc(C(=O)NCCN4CCN(c5ccccc5)CC4)cn3c(=O)c2c1,GI50,TK-10,3.56 µM (inactive)
same,GI50,A549,> 100 µM (inactive)
same,GI50,PC-3,2.37 µM (inactive)
same,GI50,786-0,3.21 µM (inactive)
same,GI50,HOP-62,6.31 µM (inactive)
same,GI50,DU-145,> 100 µM (inactive)
same,GI50,HCT-15,6.38 µM
same,GI50,UACC-62,3.87 µM (inactive)
same,GI50,HCT-116,5.66 µM (inactive)
same,GI50,Malme-3M,1.85 µM (inactive)
same,GI50,NCI-H23,7.73 µM (inactive)
same,GI50,NCI-H460,4.3 µM (inactive)
same,GI50,CCRF-CEM,2.24 µM (inactive)
same,GI50,BT-549,6.3 µM (inactive)
same,GI50,UO-31,4.9 µM (inactive)
same,GI50,MDA-N,4.6 µM (inactive)
same,GI50,K562,2.45 µM (inactive)
same,GI50,EKVX,> 100 µM (inactive)
same,GI50,M14,2.87 µM (inactive)
same,GI50,SW-620,8.49 µM (inactive)
same,GI50,MDA-MB-231,> 100 µM (inactive)
same,GI50,U-251,> 100 µM (inactive)
same,GI50,OVCAR-5,> 100 µM (inactive)
same,GI50,SK-MEL-5,2.58 µM (inactive)
same,GI50,NCI/ADR-RES,3.57 µM (inactive)
same,GI50,SK-OV-3,> 100 µM (inactive)
same,GI50,MCF7,10 µM (inactive)
same,GI50,HCC 2998,11.1 µM (inactive)
same,GI50,CAKI-1,5.06 µM (inactive)
same,GI50,SNB-75,1.89 µM (inactive)
same,GI50,IGROV-1,> 100 µM (inactive)
same,GI50,OVCAR-8,4.33 µM (inactive)
same,GI50,SF-268,> 100 µM (inactive)
same,GI50,SK-MEL-28,2.82 µM (inactive)
same,GI50,OVCAR-4,> 100 µM (inactive)
same,GI50,NCI-H226,> 100 µM (inactive)
same,GI50,COLO 205,3.33 µM (inactive)
same,GI50,NCI-H522,5.58 µM (inactive)
same,GI50,OVCAR-3,> 100 µM (inactive)
same,GI50,Hs-578T,4.93 µM (inactive)
same,GI50,KM12,20.2 µM (inactive)
same,GI50,SR,2.51 µM (inactive)
same,GI50,HT-29,4.06 µM (inactive)
same,GI50,UACC-257,4.67 µM (inactive)
same,GI50,A498,29.9 µM (inactive)
same,GI50,SNB-19,> 100 µM (inactive)
same,GI50,SF-295,2.22 µM (inactive)
same,GI50,MOLT-4,1.87 µM (inactive)
N#Cc1c(N)sc2c1-c1ccccc1OC2,GI50,TK-10,32.1 µM (inactive)
same,GI50,A549,32.4 µM (inactive)
same,GI50,RXF 393,16 µM (inactive)
same,GI50,PC-3,32.4 µM (inactive)
same,GI50,HOP-62,46.3 µM (inactive)
same,GI50,DU-145,50.1 µM (inactive)
same,GI50,HCT-15,26.7 µM
same,GI50,ACHN,32.2 µM (inactive)
same,GI50,UACC-62,53.7 µM (inactive)
same,GI50,SN12C,19.7 µM (inactive)
same,GI50,HCT-116,27.3 µM (inactive)
same,GI50,Malme-3M,41.2 µM (inactive)
same,GI50,HOP-92,44 µM (inactive)
same,GI50,NCI-H23,45.4 µM (inactive)
same,GI50,NCI-H460,36.4 µM (inactive)
same,GI50,CCRF-CEM,12.4 µM (inactive)
same,GI50,BT-549,41 µM (inactive)
same,GI50,UO-31,25.2 µM (inactive)
same,GI50,MDA-N,21.1 µM (inactive)
same,GI50,K562,34.2 µM (inactive)
same,GI50,EKVX,3.52 µM (inactive)
same,GI50,RPMI-8226,33.6 µM (inactive)
same,GI50,M14,56.5 µM (inactive)
same,GI50,SW-620,35.5 µM (inactive)
same,GI50,MDA-MB-231,46.9 µM (inactive)
same,GI50,U-251,45.1 µM (inactive)
same,GI50,OVCAR-5,31.6 µM (inactive)
same,GI50,SK-MEL-5,45.3 µM (inactive)
same,GI50,NCI/ADR-RES,32.2 µM (inactive)
same,GI50,SK-OV-3,38.2 µM (inactive)
same,GI50,MCF7,40 µM (inactive)
same,GI50,MDA-MB-435,32.5 µM (inactive)
same,GI50,SF-539,46.6 µM (inactive)
same,GI50,HCC 2998,26 µM (inactive)
same,GI50,IGROV-1,49.7 µM (inactive)
same,GI50,SF-268,37.1 µM (inactive)
same,GI50,SK-MEL-28,44.2 µM (inactive)
same,GI50,OVCAR-4,26.5 µM (inactive)
same,GI50,NCI-H226,93.5 µM (inactive)
same,GI50,COLO 205,42.8 µM (inactive)
same,GI50,OVCAR-3,22.3 µM (inactive)
same,GI50,KM12,38.2 µM (inactive)
same,GI50,SR,19.1 µM (inactive)
same,GI50,HT-29,26.2 µM (inactive)
same,GI50,UACC-257,> 100 µM (inactive)
same,GI50,A498,29.3 µM (inactive)
same,GI50,SK-MEL-2,38.5 µM (inactive)
same,GI50,SNB-19,30.5 µM (inactive)
same,GI50,LOX IMVI,38.1 µM (inactive)
same,GI50,HL-60,16.4 µM (inactive)
same,GI50,MOLT-4,17.5 µM (inactive)
